Experimental data published in US20130102009A1, “SIRTUIN ACTIVATORS AND ACTIVATION ASSAYS” (priority 2010, published 2013).
pEC50, pKd: −log10 of the molar value.

Assays:
[1] = target: T1, SIRT1 (Homo sapiens, UniProt Q96EB6); assay: Mass spectrometry based SIRT1 activation assay (TAMRA/5TMR-labeled 20mer peptide); format: biochemical; settings: for Emax: 25 min, percent maximum fold activation of SIRT1, read-out: % FOLD ACT.; for EC1.5 uM: concentration that results in 150% activation of SIRT1
T1 sequence (Q96EB6 1-747): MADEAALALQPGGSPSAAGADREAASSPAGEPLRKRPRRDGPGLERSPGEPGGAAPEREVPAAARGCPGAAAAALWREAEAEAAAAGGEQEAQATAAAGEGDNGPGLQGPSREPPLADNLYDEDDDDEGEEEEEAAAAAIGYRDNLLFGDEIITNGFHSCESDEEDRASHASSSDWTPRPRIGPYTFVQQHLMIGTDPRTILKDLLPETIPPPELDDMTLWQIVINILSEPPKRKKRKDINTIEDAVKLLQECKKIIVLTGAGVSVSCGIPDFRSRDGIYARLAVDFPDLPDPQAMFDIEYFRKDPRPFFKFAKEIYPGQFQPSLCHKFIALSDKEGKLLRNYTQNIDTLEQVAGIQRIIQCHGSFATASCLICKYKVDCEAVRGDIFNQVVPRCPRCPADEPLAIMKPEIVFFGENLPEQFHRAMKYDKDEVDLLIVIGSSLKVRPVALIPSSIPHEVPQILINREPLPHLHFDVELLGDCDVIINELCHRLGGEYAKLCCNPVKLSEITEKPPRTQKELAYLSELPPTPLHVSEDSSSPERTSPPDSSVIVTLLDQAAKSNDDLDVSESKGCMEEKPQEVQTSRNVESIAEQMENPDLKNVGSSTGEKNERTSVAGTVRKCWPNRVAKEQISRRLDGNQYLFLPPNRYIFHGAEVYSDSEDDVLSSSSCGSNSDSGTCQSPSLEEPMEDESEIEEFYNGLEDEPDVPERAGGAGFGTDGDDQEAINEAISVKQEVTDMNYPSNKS
Text: A mass spectrometry based assay was used to identify modulators of SIRTI activity. The mass spectrometry based assay utilizes a peptide having 20 amino acid residues as follows: Ac-EE-K(biotin)-GQSTSSHSK(Ac)NleSTEG-K(5TMR)-EE-NH2 (SEQ ID NO: 1) wherein K(Ac) is an acetylated lysine residue and Nle is a norleucine. The peptide is labeled with the fluorophore 5TMR (excitation 540 nrnIemission 580 nm) at the C-terminus. The sequence of the peptide substrate is based on p53 with several modifications. In addition, the methionine residue naturally present in the sequence was replaced with the norleucine because the methionine may be susceptible to oxidation during synthesis and purification.
The mass spectrometry assay is conducted as follows: 0.5 J-1M peptide substrate and 120 μM βNAD^+ is incubated with 10 nM SIRT1 for 25 minutes at 25° C. in a reaction buffer (50 mM Tris-acetate pH 8, 137 mM NaCl, 2.7 mM KCl, 1 mM MgClz, 5 mM DTT, 0.05% BSA). Test compounds may be added to the reaction as described above. The SirTI gene is cloned into a T7-promoter containing vector and transformed into BL21 (DE3). After the 25 minute incubation with SIRT1, 10 μL of 10% formic acid is added to stop the reaction. Reactions are sealed and frozen for later mass spec analysis. Determination of the mass of the substrate peptide allows for precise determination of the degree of acetylation (i.e. starting material) as compared to deacetylated peptide (product).
A control for inhibition of sirtuin activity is conducted by adding 1 μL of 500 mM nicotinamide as a negative control at the start of the reaction (e.g., permits determination of maximum sirtuin inhibition). A control for activation of sirtuin activity is conducted using 10 nM of sirtuin protein, with 1 μL of DMSO in place of compound, to determine the amount of deacetylation of the substrate at a given timepoint within the linear range of the assay. This timepoint is the same as that used for test compounds and, within the linear range, the endpoint represents a change in velocity.
For the above assay, SIRTI protein was expressed and purified as follows. The SirT1 gene was cloned into a T7-promoter containing vector and transformed into BL21(DE3). The protein was expressed by induction with 1 mM IPTG as an N-terminal His-tag fusion protein at 18° C. overnight and harvested at 30,000×g. Cells were lysed with lysozyme in lysis buffer (50 mM Tris-HCl, 2 mM Tris[2-carboxyethyl]phosphine (TCEP), 10 μM ZnCl2, 200 mM NaCl) and further treated with sonication for 10 min for complete lysis. The protein was purified over a Ni-NTA column (Amersham) and fractions containing pure protein were pooled, concentrated and run over a sizing column (Sephadex S200 26/60 global). The peak containing soluble protein was collected and run on an Ion-exchange column (MonoQ). Gradient elution (200 mM-500 mM NaCl) yielded pure 20 protein. This protein was concentrated and dialyzed against dialysis buffer (20 mM TrisHCl, 2 mM TCEP) overnight. The protein was aliquoted and frozen at −80° C. until further use.
Sirtuin modulating compounds that activated SIRT1 were identified using the assay described above and are shown below in Table 4. The EC1.5 values represent the concentration of test compounds that result in 150% activation of SIRT1. The EC1.5 values for the activating compounds are represented by A (EC1.5≦1 μM), B (EC1.5>1 μM). The percent maximum fold activation is represented by A (Fold activation ≧200%) or B (Fold Activation <200%).

[2] = target: TAMRA-peptide; assay: ITC binding of STACs to TAMRA-peptide; settings: 26° C., pH 7.3, read-out: Kd for the binding of activator to TAMRA-peptide
Protocol: ITC experiments were performed using either a VP-ITC system or iTC200 system (MicroCal) at 26° C. in a buffer composed of 137 mM NaCl, 2.7 mM KCl, 1 mM MgCl2, 2 mM TCEP, 5% (v/v) glycerol and 50 mM HEPES-NaOH, pH 7.3. SIRT1(183-664) was purified and dialyzed against the buffer, centrifuged, and degassed before the experiment. The peptide and compounds were dissolved in the final dialysis buffer and their pH values were adjusted to match that of the protein solution. […] To characterize this interaction using the iTC200 system, 1 mM TAMRA-peptide was injected in 20 aliquots of 2 μL, (except the first injection, which was 0.5 μL) into a 0.202 mL sample cell containing 100 μM STAC. For STACs with poor solubility, the concentrations were adjusted accordingly. […] In all cases, data was corrected for the heat of dilution and fitted using a nonlinear least-squares routine using a single-site binding model with Origin for ITC v7.0383 (Microcal) with the stoichiometry (n), the enthalpy of the reaction (ΔH) and the association constant (Ka) calculated.

[3] = target: T1, SIRT1; assay: Mass spectroscopic kinetic assay of SIRT1-catalyzed deacetylation of 20mer peptides; format: biochemical; settings: substrate TAMRA-peptide
Protocol: Bovine glutamate dehydrogenase (GDH), α-ketoglutarate, NADH and NAD^+ were from Sigma Chemical Company. […] The nicotinamidase PNC1 was prepared as described by Denu and colleagues (Smith et al. (2009) Anal Biochem 394, 101-109). Our collection of approximately 5,000 SIRT1 activators was screened using the BioTrove mass spectrometry system, as previously described (Milne et al. (2007) Nature 450, 712-716). […] Compounds were present at 10 μM, and the assays were conducted in a pH 7.4 buffer containing 150 mM Tris, 5 mM DTT, 1% DMSO, and 0.025% BSA. To determine the interaction of STACs with SIRT1 two kinetic methods were employed. […] (2007) Nature 450, 712-716). The other, used with peptides of general structure […], used a continuous, enzyme-coupled method reported previously (Smith et al. (2009) Anal Biochem 394, 101-109), in which the SRT1 product nicotinamide is first converted into nicotinic acid and ammonia by the action of PNC1, and the ammonia then used by GDH to convert α-ketoglutarate into glutamate. This reaction occurs with oxidation of NADH to NAD^+ which is accompanied by a change in absorbance at 340 nm (Δε340=-6,200 M^-1 cm^-1). Activator titrations were plotted as relative velocity (i.e., the ratio of vx, velocity in the presence of activator X, to vo, velocity in the absence of activator) vs. [X]o, initial concentration of activator, and fit by nonlinear least-squares to the mechanism-independent expression for enzyme activation of […] the maximum relative velocity (i.e., vx/vo at infinite [X]o) and EC50 is the activator concentration at which vx/vo=(RVmax-1)/2. EC50 is a function of the kinetic mechanisms of both catalysis and activation, and the concentrations of substrates.

[4] = target: T2, SIRT1(183-664) (Homo sapiens, UniProt Q96EB6); assay: ITC binding of STACs to SIRT1(183-664); settings: dissociation constant of SRT:SIRT1 complex, read-out: Kx (μM), ITC
T2 construct: the truncated version used for biophysical studies SIRT1(183-664); made in house
T2 sequence (Q96EB6 183-664): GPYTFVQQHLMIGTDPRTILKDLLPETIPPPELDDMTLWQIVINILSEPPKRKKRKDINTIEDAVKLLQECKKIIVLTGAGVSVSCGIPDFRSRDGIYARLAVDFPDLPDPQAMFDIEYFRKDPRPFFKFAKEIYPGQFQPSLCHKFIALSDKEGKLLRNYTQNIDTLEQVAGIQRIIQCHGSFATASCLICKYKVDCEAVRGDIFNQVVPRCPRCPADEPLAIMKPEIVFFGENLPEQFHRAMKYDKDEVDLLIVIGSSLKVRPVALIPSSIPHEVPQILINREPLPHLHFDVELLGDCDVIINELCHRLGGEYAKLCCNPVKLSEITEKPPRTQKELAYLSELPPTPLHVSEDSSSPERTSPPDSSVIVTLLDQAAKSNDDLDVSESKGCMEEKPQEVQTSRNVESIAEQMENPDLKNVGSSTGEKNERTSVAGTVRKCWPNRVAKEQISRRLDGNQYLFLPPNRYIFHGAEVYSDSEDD
Protocol: All peptides were prepared by BioPeptide (San Diego, Calif.) and shown to be at least 95% pure by analytical HPLC analysis. Bovine glutamate dehydrogenase (GDH), α-ketoglutarate, NADH and NAD^+ were from Sigma Chemical Company. Full-length, human SIRT1 and the truncated version used for biophysical studies SIRT1(183-664) were prepared as described previously, and shown to have equivalent kinetic properties (Milne et al. (2007) Nature 450, 712-716). The nicotinamidase PNC1 was prepared as described by Denu and colleagues (Smith et al. (2009) Anal Biochem 394, 101-109). ITC experiments were performed using either a VP-ITC system or iTC200 system (MicroCal) at 26° C. in a buffer composed of 137 mM NaCl, 2.7 mM KCl, 1 mM MgCl2, 2 mM TCEP, 5% (v/v) glycerol and 50 mM HEPES-NaOH, pH 7.3. SIRT1(183-664) was purified and dialyzed against the buffer, centrifuged, and degassed before the experiment. The peptide and compounds were dissolved in the final dialysis buffer and their pH values were adjusted to match that of the protein solution. […] To characterize this interaction using the iTC200 system, 1 mM TAMRA-peptide was injected in 20 aliquots of 2 μL, (except the first injection, which was 0.5 μL) into a 0.202 mL sample cell containing 100 μM STAC. For STACs with poor solubility, the concentrations were adjusted accordingly. […] To characterize the interaction of a STAC with SIRT1(183-664) on the VP-ITC system, 100 μM enzyme was injected in 35 aliquots of 8 μL, (except the first injection, which was 2 μL) into a 1.47 mL sample cell containing 10 μM STAC. […] In all cases, data was corrected for the heat of dilution and fitted using a nonlinear least-squares routine using a single-site binding model with Origin for ITC v7.0383 (Microcal) with the stoichiometry (n), the enthalpy of the reaction (ΔH) and the association constant (Ka) calculated.

**Q.** `O=C(Nc1ccccc1-c1nc2cc(CCC3CCNCC3)cnc2s1)c1cccc(C2CCNC2)c1` (centres unmarked) [Compound 7] was tested. Which Emax [1] did it give?
**A.** Its Emax is at least 200%.

**Q.** And the “EC1.5 uM” value [1]?
**A.** Its value is “A (EC1.5≦1 μM)”.

**Q.** What about the pKd [2] of the same molecule?
**A.** Its pKd is 4.44.

**Q.** What about the “EC1.5 for activation of SIRT1” value ([3]; concentration for 1.5-fold activation) of the same molecule?
**A.** The value was 0.1 µM.

**Q.** What about the pEC50 ([3]; fit to eq (1), read-out: EC50 (Kx) for activation of SIRT1-catalyzed deacetylation of TAMRA-peptide) of the same molecule?
**A.** The pEC50 was 6.30.

**Q.** For `CCCNc1cc(-c2nc3c(NC(=O)c4ccc(CN5CCNCC5)cc4)cccc3[nH]2)ccn1` [Compound 13], which Kd [4] is on record?
**A.** The Kd was 0.32 µM.

**Q.** And the Emax [1]?
**A.** The Emax was at least 200%.

**Q.** What about the “EC1.5 uM” value [1] of the same molecule?
**A.** Its value is “A (EC1.5≦1 μM)”.
